US12331042B2, “Compounds suitable for the treatment and prophylaxis of muscle wasting and other conditions” (priority 2019, dated 2025)

Legend:
[1] = test system: C57/BL6 mice with LAD ligation (CHF); assay: Myocardial infarction LAD mouse model (CHF, HFrEF); assay type: in vivo; details: 0.1% compound in chow
Description: A myocardial infarction mouse model suffering from a heart failure with reduced ejection fraction (HFrEF) was generated by ligating the left anterior […] coronary artery (LAD) as described below to induce an acute myocardial infarction (MI) followed by the development of a chronic (systolic) heart failure (CHF).
A small animal surgery was carried out on C57/BL6 mice at 12 weeks of age in the Leipzig Heart Center following established and well known procedures in the field (see for example Bowen et al., J Appl Physiol, 2015, 118, 11-19; Mangner et al., J Cachexia Sarcopenia Muscle, 2015, 6, 381-390). Briefly, mice from the LAD group were anesthetized by i.p. injection of MMF; Medetomidin (0.5 mg/kg body weight), Midazolam (5.0 mg/kg body weight), Fentanyl (0.05 mg/kg body weight). Unconscious mice were fixed on an operation table. Ventral parts of the thorax were shaved, washed and sterilized. Unconscious mice were then intubated and ventilated with normal room air, using an animal respirator (TSE GmbH, Siemensstr. 21, 61352 Bad Homburg; product: http://tinateb.com/wp-content/uploads/2016/06/TSE_Respirator-Compact_20080724_HR.pdf). For LAD operation, the thorax was opened about 1 cm above the Processus xiphoideus and about 1 cm left parasternally by dissecting the skin here. The below located M. pectoralis was moved to the sides without further injury to access the thorax wall. The intercostal muscles between two ribs were moved to the side without breaking the ribs. The thereby created intrathoracic access was widened by a surgical spreader inserted above the pericardium. The pericardium was opened surgically stump by using two anatomical forceps. The thymus, if present in the surgical field, was pushed to the side with a surgical swab to gain access to the aortic root. The heart was carefully moved out of the pericardium using a hook, and the left atrium was put to the side with a surgical swab. The LAD was then ligated with a 5.0 Prolene suture (Ethicon, see http://www.ethicon.com/healthcare-professionals/products/wound-closure/non-absorbable-sutures/prolene-polypropylene). The ligation was made close to the aortic root, and the suture was tightened until paleness of the coronary artery anterior wall was noted. After ligation, the thorax wall and then the skin were closed by a single button seam using a 4.0 Prolene suture (company: Ethicon).
As a control, sham operations were performed. For the sham control group, the procedure followed was exactly the same as described above, except that the 5.0 prolene suture was only loosely out around the LAD without tightening.
The operation is ended by extubation, and antagonizing the anesthesia by i.p. injection of Atipamezol (2.5 mg/kg body weight) and Flumazenil (0.5 mg/kg body weight). Mice were put onto a warming mate until waking up, and then were transferred back to animal cages. The time for the whole procedure above by expert staff was around 30 min.
One week after LAD ligation, echocardiography was performed in M-mode to confirm MI, i.e. the left ventricular end-diastolic (LVEDD) and systolic (LVESD) diameters were assessed to allow calculation of left ventricular (LV) fractional shortening (LVFS=[LVEDD_LVESDLVEDD]×100). Only mice with a large infarct (left ventricular ejection fraction (LVEF)<20%) were subsequently randomized into two groups, i.e. one group receiving normal chow (CHF, n=11) and a second group receiving chow supplemented with compound (0.1% of compound MyoMed-946, CHF+MyoMed-946, n=12). Sham operated animals received only normal chow (n=15). Nine weeks later, echocardiography was performed again.
The animals were sacrificed to collect tissues, in particular diaphragm tissue, for functional and molecular characterization. All experiments and procedures were approved by the local Animal Research Council, University of Leipzig, and the Landesbehörde Sachsen (TVV 36/15).

[2] = test system: eIF2B4, AS3MT, ATPAF1, GHDC, BAX protein levels in diaphragm; assay: Proteomic analysis (mass spectrometry) of diaphragm, MCT mice; assay type: in vivo; details: MCT + MyoMed-946/MCT, n=3 per group
Description: Proteins from frozen diaphragm samples in sham, MCT, and MCT+compound mice (n=3 per group) were powdered under liquid N2. Mass spectrometry was then performed at the DZHK mass spectrometry core facility at Bad Nauheim, as described in Konzer et al., Methods in molecular biology, 2013, 1005, 39-52. The relative ratios for MCT/sham and MCT+compound/MCT were determined, with only hits deemed to be differentially expressed and highly significant (P<0.01) further studied by Western blot.

[3] = Storage stability at room temperature (NMR, LC-MS); assay type: physicochemical; details: several months storage at room temperature; confirmed via NMR and LC-MS
Description: [2-(2-Furylmethylcarbamoylamino)-2-oxo-ethyl]

MuRF1 central fragment = assay: Differential scanning fluorimetry (DSF) of MuRF1 central fragment; assay type: binding; details: 100 μM compound, 1% DMSO in PBS, 75 μM protein; 65.8° C. with 1% DMSO alone
Description: The effect of compound MyoMed-946 on MuRF1 protein stability was determined in vitro by differential scanning fluorimetry (DSF).
“MuRF1 central fragment” was expressed as previously described (Mrosek M et al., FASEB J, 2007, 21, 1383-1392) and used in DSF experiments at 75 μM final concentration. Compound MyoMed-946 was diluted from a 10 mM stock in DMSO to 100 μM in PBS as DSF assay buffer, resulting in a final concentration of 1% DMSO. After 1 hour pre-incubation at room temperature, the aqueous protein solutions were soaked into capillaries and placed into a Prometheus NT.48 nanoDSF device (NanoTemper Technologies, Munich, Germany). Changes in the intrinsic tryptophan or tyrosine fluorescence that occurred after LED laser excitement upon protein unfolding in a thermal gradient was detected at 330 nm and 350 nm, respectively. […] The first derivative of the fluorescence wavelength ratio of 350/330 nm upon thermal protein unfolding was used to calculate transition midpoint (Tm) of single and multiple transition states.

[4] = after 10 weeks of intervention, n = 12
[5] = after 10 weeks, echocardiography

With `Cc1cc(=O)oc2cc(OCc3ccc(C(=O)OCC(=O)NC(=O)NCc4ccco4)cc3)ccc12` [MyoMed-946, [2-(2-furylmethylcarbamoylamino)-2-oxo-ethyl] 4-[(4-methyl-2-oxo-chromen-7-yl)oxymethyl]benzoate] as the compound, how does the LV infarct size ([1]; after 10 weeks of intervention, histology) read?
The LV infarct size was 27.1 ± 2.9%.

And the Heart-to-body weight [1, 4]?
The Heart-to-body weight was 7.52 ± 0.57 mg/g.

What about the “Lung weight (wet/dry)” value [1, 4] of the same compound?
The value was 4.47 ± 0.10.

And the LVEDD [1, 5]?
Its LVEDD is 5.9 ± 0.2 mm.

And the LVEF [1, 5]?
Its LVEF is 21.1 ± 2.5 %.

And the LVESD [1, 5]?
The LVESD was 5.3 ± 0.2 mm.

What about the LVFS [1, 5] of the same compound?
The LVFS was 9.9 ± 1.2 %.

And the “Protein Ratio (log2), AS3MT” value [2]?
Its value is −0.31.

And the “Protein Ratio (log2), ATPAF1” value [2]?
The value was −0.68.

And the “Protein Ratio (log2), BAX” value [2]?
Its value is −0.73.

What about the “Protein Ratio (log2), GHDC” value [2] of the same compound?
The value was −0.39.

And the “Protein Ratio (log2), eIF2B4” value [2]?
Its value is 0.32.

What about the decay on storage [3] of the same compound?
Its decay on storage is “no trace of decay”.

What about the “main Tm of MuRF1 central fragment” value (MuRF1 central fragment) of the same compound?
The value was 52.5 °C.
